{"source": "patent US20240425491A1", "about": "“HETEROARYL COMPOUNDS USEFUL IN THE TREATMENT OF COGNITIVE DISORDERS” (University College Cardiff Consultants Limited, priority 2021, published 2024)", "key": {"[1]": {"biological_target": "T1, human recombinant GABAAR containing α5β3γ2 subunits (benzodiazepine site) (Homo sapiens, UniProt P18507+P31644)", "T1 construct": "expressed in transfected cells; host or cells: mouse L(tk−) cells, dexamethasone-inducible vector pMSGneo", "T1 sequence (P31644 32-462)": "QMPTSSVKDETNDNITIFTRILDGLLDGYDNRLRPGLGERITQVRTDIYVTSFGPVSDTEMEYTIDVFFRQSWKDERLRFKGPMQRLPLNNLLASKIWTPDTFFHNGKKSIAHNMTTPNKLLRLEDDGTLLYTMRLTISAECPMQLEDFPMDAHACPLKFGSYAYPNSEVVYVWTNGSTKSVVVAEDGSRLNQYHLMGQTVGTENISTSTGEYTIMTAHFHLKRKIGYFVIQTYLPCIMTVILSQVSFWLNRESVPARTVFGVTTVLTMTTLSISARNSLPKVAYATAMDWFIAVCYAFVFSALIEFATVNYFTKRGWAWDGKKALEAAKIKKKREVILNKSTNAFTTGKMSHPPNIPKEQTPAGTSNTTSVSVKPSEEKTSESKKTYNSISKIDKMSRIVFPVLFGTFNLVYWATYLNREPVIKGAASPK", "T1 sequence (P28472 26-473 partner)": "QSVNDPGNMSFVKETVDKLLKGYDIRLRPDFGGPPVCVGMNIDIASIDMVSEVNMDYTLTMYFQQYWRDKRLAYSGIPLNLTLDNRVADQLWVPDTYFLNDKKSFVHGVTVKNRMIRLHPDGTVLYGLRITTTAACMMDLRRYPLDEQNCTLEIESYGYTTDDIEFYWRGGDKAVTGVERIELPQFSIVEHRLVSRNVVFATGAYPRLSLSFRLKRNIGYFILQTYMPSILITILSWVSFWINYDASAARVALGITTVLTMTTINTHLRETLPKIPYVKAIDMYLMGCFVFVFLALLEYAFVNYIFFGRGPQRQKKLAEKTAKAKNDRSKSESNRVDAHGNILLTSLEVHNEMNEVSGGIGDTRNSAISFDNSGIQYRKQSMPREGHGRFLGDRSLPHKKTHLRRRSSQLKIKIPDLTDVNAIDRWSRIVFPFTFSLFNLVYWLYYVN", "T1 sequence (P18507 40-475)": "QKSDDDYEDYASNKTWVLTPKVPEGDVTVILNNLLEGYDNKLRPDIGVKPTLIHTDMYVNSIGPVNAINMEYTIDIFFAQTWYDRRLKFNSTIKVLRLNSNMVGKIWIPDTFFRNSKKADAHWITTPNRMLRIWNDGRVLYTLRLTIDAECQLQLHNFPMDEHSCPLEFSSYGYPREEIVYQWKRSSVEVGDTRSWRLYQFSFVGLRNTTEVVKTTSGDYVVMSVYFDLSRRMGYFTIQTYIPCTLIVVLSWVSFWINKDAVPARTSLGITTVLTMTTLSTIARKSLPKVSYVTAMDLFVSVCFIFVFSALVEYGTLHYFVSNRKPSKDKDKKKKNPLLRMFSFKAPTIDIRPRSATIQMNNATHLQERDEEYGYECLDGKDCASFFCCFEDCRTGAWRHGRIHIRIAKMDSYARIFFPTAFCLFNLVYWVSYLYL", "assay": "In vitro radioligand binding assay (α5-GABAAR Ki)", "details": "inhibition of [3H]Ro15-1788 binding, membranes of L(tk−) cells expressing human α5β3γ2; read-out: α5-GABAAR Ki", "procedure,_shortened": "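Displacement of 4 nM [^3H]flumazenil from the benzodiazepine site, read by filtration and scintillation, gave IC50, converted to Ki (Cheng-Prusoff, saturation-derived Kd). Receptor: human α5β3γ2 membranes from L(tk^−) cells, 50 μg protein/well; 1 h, 4° C; TP003 1 μM defined nonspecific binding.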"}, "[2]": {"system": "mouse hippocampal brain slices (LTP suppressed by etomidate)", "assay": "Electrophysiology in hippocampal slices - long term potentiation assay"}, "rat brain α5-GABAARs": {"biological_target": "T2, rat brain α5-GABAARs (Rattus norvegicus, UniProt P18508+P19969)", "T2 construct": "from tissue; host or cells: forebrain of male Sprague-Dawley rats, dosed in vivo", "T2 sequence (P19969 32-464 limits assumed)": "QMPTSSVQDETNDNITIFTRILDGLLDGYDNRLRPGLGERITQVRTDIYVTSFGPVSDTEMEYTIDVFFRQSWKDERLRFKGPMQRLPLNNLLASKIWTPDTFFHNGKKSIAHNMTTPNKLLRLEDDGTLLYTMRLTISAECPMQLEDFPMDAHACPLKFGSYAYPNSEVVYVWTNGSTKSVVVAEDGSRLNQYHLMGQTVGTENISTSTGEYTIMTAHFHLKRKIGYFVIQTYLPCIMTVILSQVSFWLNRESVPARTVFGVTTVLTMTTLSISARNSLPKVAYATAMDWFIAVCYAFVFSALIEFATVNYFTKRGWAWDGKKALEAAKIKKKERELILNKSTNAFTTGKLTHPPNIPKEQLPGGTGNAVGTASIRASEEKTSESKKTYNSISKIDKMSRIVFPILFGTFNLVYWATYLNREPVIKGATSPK", "T2 sequence (P18508 39-466)": "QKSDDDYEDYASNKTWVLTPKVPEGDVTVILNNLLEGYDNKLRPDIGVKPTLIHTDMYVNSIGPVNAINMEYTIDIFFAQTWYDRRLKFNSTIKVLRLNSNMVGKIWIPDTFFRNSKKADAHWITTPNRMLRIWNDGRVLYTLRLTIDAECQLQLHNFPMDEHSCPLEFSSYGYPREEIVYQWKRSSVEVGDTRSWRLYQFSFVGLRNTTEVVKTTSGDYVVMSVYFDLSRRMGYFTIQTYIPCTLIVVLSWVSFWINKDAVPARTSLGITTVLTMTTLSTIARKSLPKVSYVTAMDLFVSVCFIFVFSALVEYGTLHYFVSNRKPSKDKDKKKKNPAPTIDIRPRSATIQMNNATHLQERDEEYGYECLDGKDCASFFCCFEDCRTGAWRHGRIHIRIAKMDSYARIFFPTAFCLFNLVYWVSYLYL", "assay": "In vivo brain receptor occupancy assay ([3H]L-655,708 binding)", "method": "The occupancy of rat brain benzodiazepine binding sites by compound was measured by its ability to inhibit the in vivo binding of [^3H] L-655,708. This radioligand is selective for the benzodiazepine site of GABAA receptors containing an α5 subunit (Quirk et al. 2001, Journal of Neurochemistry, 77 445-51) and has been used previously to measure in vivo α5-GABAAR occupancy (Atack et al. 2005, Neuropharmacology, 49 220-229).\n[…] To block all benzodiazepine binding sites and therefore define the level of non-specific binding of [^3H] […]\nAnimals were then killed by stunning and decapitation, the whole brain was rapidly removed, the cerebellum and brainstem were discarded, leaving the forebrain which was weighed and homogenised in 10 volumes of ice-cold homogenising buffer (10 mM potassium phosphate buffer containing 100 mM KCl, pH 7.4). Aliquots of homogenate (500 μL) were then added directly to scintillation vials (total radioactivity) or filtered and washed with 5 ml Tris-HCL buffer (50 mM, pH 7.4) over Whatman glass microfiber GF/B filters. Washed filters were then placed in scintillation vials (three filters per vial) and scintillation fluid was added to all vials, which were then counted on a Perkin-Elmer Tricarb 2900TR scintillation counter (membrane-bound radioactivity). […]"}}}
{"smiles": "COc1nc(-n2ccnc2)ccc1NC(=O)c1c(-c2ccccc2)noc1C", "note": "[Example 1, N-(6-Imidazol-1-yl-2-methoxy-3-pyridyl)-5-methyl-3-phenyl-isoxazole-4-carboxamide]", "values": [{"measurement": "Ki", "setting": "[1]", "result": 2.9, "unit": "nM"}, {"measurement": "magnitude of LTP (fEPSP slope as % of control fEPSPs prior to 4-TBS vs time)", "setting": "[2]; 1 μM co-added with etomidate 3 μM, n=6, FIG. 2A", "result": "rescued"}, {"measurement": "fEPSP slope at 50-60 min post-delivery of the 4-TBS", "setting": "[2]; co-incubation with etomidate, one-way ANOVA, post-hoc Tukey, p<0.05, FIG. 2B", "result": "significantly increased fEPSP slope"}, {"measurement": "occupancy of rat brain α5-GABAARs, dependence on dose", "setting": "rat brain α5-GABAARs; 3 to 30 mg/kg p.o., FIG. 3", "result": "dose-dependent"}, {"measurement": "receptor occupancy at 10 mg/kg", "setting": "rat brain α5-GABAARs; po, 10 mg/kg p.o., inhibition of in vivo [3H]L655,708 binding, FIG. 3, read-out: occupancy of rat brain α5 GABAA receptors", "result": 77, "unit": "%"}]}
